# In patent publication US8637504B2, “Sulfur-containing heterocyclic derivative having beta secretase inhibitory activity” (Shionogi & Co., Ltd., priority 2008, dated 2014):
# System: not listed separately
# Assay: Solubility test
# Assay type: physicochemical
# Details: pH 1.2, simulated gastric fluid, kinetic from dmso stock; JP-I medium, turbidity after 4 hours
# Method: A 2-fold dilution series (12 points) of a 10 mM solution of a test compound in DMSO was added to a medium (JP-I, JP-II) (2%), and solubility was assessed by 3 stages (High; >40 Medium; 3-40 μM, Low; <3 μM) from a turbidity after 4 hours (crystallization information).
row,solubility at 4 h [µM],SMILES
1,> 40,C[C@@]1(c2cc(NC(=O)c3ccc(OCCF)cn3)ccc2F)C=CSC(N)=N1 [Compound 32]
2,> 40,COc1cnc(C(=O)Nc2cccc(C3(C4CCCCC4)CSC(N)=N3)c2)cn1 (centres unmarked) [Compound 2]
3,> 40,NC1=NC(c2ccc(F)cc2)(c2cccc(NC(=O)c3ncc(Cl)cc3Cl)c2)CS1 (centres unmarked) [Compound 9]
4,> 40,Cn1ccnc1COc1cnc(C(=O)Nc2ccc(F)c([C@]3(C)C=CSC(N)=N3)c2)cn1 [Compound 60]

row,SMILES,solubility at 4 h [µM]
1,CC1=CSC(N)=N[C@]1(C)c1cc(NC(=O)c2cnc(C)cn2)ccc1F [Compound 23],> 40

# Molecular target: Recombinant human BACE-1 (Homo sapiens (Human), UniProt P56817)
# Assay: Assay of β-secretase-inhibiting activity
# Details: not given
# Recombinant human BACE-1, sequence (P56817 46-501): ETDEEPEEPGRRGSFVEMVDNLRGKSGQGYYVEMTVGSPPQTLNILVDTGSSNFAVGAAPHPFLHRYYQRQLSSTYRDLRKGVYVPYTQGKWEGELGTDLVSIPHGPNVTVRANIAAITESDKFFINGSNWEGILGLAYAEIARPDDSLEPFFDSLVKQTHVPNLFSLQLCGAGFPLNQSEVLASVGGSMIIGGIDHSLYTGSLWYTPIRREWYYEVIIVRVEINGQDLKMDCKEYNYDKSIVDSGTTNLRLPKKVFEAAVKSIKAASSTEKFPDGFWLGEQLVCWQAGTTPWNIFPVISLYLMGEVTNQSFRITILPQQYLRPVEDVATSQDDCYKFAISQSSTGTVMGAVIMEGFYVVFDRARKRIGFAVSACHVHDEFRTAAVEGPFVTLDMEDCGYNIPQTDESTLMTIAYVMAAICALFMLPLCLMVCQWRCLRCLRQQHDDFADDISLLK
row,SMILES,IC50 [nM]
1,C[C@@]1(c2cc(NC(=O)c3ccc(OCCF)cn3)ccc2F)C=CSC(N)=N1 [Compound 32],≤ 1000
2,NC1=NC(c2ccc(OC(F)(F)F)cc2)(c2cccc(NC(=O)c3ncc(Cl)cc3Cl)c2)CS1 (centres unmarked) [Compound 57],≤ 1000
3,Cc1cnc(C(=O)Nc2ccc(F)c([C@]3(C)C=C(c4ccccc4)SC(N)=N3)c2)cn1 [Compound 19],≤ 1000
4,COc1cnc(C(=O)Nc2cccc([C@]3(C)C=CSC(N)=N3)c2)cn1 [Compound 28],≤ 1000
5,C[C@@]1(c2cc(NC(=O)c3ncc(C#N)cn3)ccc2F)C=CSC(N)=N1 [Compound 78],≤ 1000
6,C#CCOc1cnc(C(=O)Nc2ccc(F)c([C@]3(C)C=CSC(N)=N3)c2)cn1 [Compound 14],≤ 1000
7,C[C@@]1(c2cccc(NC(=O)c3ccc(C#N)cn3)c2)C=CSC(N)=N1 [Compound 30],≤ 1000
8,CC1=C[C@@](C)(c2cc(NC(=O)c3ccc(C#N)cn3)ccc2F)N=C(N)S1 [Compound 27],≤ 1000
9,C/C(CN1CCCC1)=C1\C[C@@](C)(c2cc(NC(=O)c3ccc(C#N)cn3)ccc2F)N=C(N)S1 [Compound 98],≤ 1000
10,COCCOc1cnc(C(=O)Nc2ccc(F)c([C@]3(C)C=CSC(N)=N3)c2)cn1 [Compound 34],≤ 1000
11,Cc1cnc(C(=O)Nc2ccc(F)c([C@]3(C)C=CSC(N)=N3)c2)cn1 [Compound 12],≤ 1000
12,C#CCOc1cnc(C(=O)Nc2ccc(F)c([C@]3(C)C=C(C)SC(N)=N3)c2)cn1 [Compound 26],≤ 1000
13,COc1ccc(C2(c3cccc(NC(=O)c4cnc(O)cn4)c3)CSC(N)=N2)cc1 (centres unmarked) [Compound 5],≤ 1000
14,COc1cnc(C(=O)Nc2ccc(F)c([C@]3(C)C=CSC(N)=N3)c2)cn1 [Compound 13],≤ 1000
15,COc1cnc(C(=O)Nc2ccc(F)c([C@]3(C)C=C(c4ccccc4)SC(N)=N3)c2)cn1 [Compound 18],≤ 1000
16,Cc1nc(C(=O)Nc2ccc(F)c([C@]3(C)C=CSC(N)=N3)c2)co1 [Compound 15],≤ 1000
17,COc1cnc(C(=O)Nc2ccc(F)c([C@]3(C)C=CSC(N)=N3)c2)c(N)n1 [Compound 37],≤ 1000
18,COCCOc1cnc(C(=O)Nc2cccc(C3(C4CCCCC4)CSC(N)=N3)c2)cn1 (centres unmarked) [Compound 1],≤ 1000
19,Cc1ncn(-c2cnc(C(=O)Nc3ccc(F)c([C@]4(C)C=CSC(N)=N4)c3)cn2)n1 [Compound 74],≤ 1000
20,C#CCOc1cnc(C(=O)Nc2cccc(C3(C(F)(F)F)CCSC(N)=N3)c2)cn1 (centres unmarked) [Compound 49],≤ 1000
21,C#CCOc1cnc(C(=O)Nc2cccc([C@]3(C)C=CSC(N)=N3)c2)cn1 [Compound 29],≤ 1000
22,C[C@@]1(c2cc(NC(=O)c3cnc(-c4ccc[nH]4)cn3)ccc2F)C=CSC(N)=N1 [Compound 36],≤ 1000
23,C/C(CN1CCOCC1)=C1\C[C@@](C)(c2cc(NC(=O)c3ccc(C#N)cn3)ccc2F)N=C(N)S1 [Compound 96],≤ 1000
24,COc1cnc(C(=O)Nc2ccc(F)c([C@]3(C)C=C(C)SC(N)=N3)c2)cn1 [Compound 25],≤ 1000
25,C[C@@]1(c2cc(NC(=O)c3cnc(OCCF)cn3)ccc2F)C=CSC(N)=N1 [Compound 31],≤ 1000

# Next, values leading:
row,IC50 [nM],SMILES
1,≤ 1000,C=C1C[C@@](C)(c2cncc(NC(=O)c3ccc(C(F)(F)F)cn3)c2)N=C(N)S1 [Compound 107]
2,≤ 1000,C/C(CO)=C1\C[C@@](C)(c2cc(NC(=O)c3ccc(C#N)cn3)ccc2F)N=C(N)S1 [Compound 85]
3,≤ 1000,C=C1C[C@@](C)(c2cc(NC(=O)c3ccc(C#N)cn3)ccc2F)N=C(N)S1 [Compound 50]
4,≤ 1000,C=C1C[C@@](C)(c2cc(NC(=O)c3ccc(C#N)cn3)cnc2Cl)N=C(N)S1 [Compound 95]
5,≤ 1000,C/C(CN(C)C)=C1\C[C@@](C)(c2cc(NC(=O)c3ccc(C#N)cn3)ccc2F)N=C(N)S1 [Compound 100]
6,≤ 1000,NC1=NC(c2cccc(NC(=O)c3ncc(Cl)cc3Cl)c2)(C(F)(F)F)CCS1 (centres unmarked) [Compound 45]
7,≤ 1000,C[C@@]1(c2cc(NC(=O)c3ncc(Cl)cn3)ccc2F)C=CSC(N)=N1 [Compound 80]
8,≤ 1000,C[C@@]1(c2cc(NC(=O)c3ncc(F)cc3F)ccc2F)C=CSC(N)=N1 [Compound 77]
9,≤ 1000,C[C@@]1(c2cc(NC(=O)c3ncc(C#N)cc3F)ccc2F)C=CSC(N)=N1 [Compound 84]
10,≤ 1000,C=C1C[C@@](C)(c2cc(NC(=O)c3ncc(Cl)cc3Cl)ccc2F)N=C(N)S1 [Compound 52]
11,≤ 1000,C=C1C[C@@](C)(c2cncc(NC(=O)c3ccc(C#N)cn3)c2)N=C(N)S1 [Compound 105]
12,≤ 1000,COc1ccc(C2(c3cccc(NC(=O)c4ncc(Cl)cc4Cl)c3)CSC(N)=N2)cc1 (centres unmarked) [Compound 4]
13,≤ 1000,CC(C)(O)/C=C1/C[C@@](C)(c2cc(NC(=O)c3ccc(C#N)cn3)ccc2F)N=C(N)S1 [Compound 55]
14,≤ 1000,C[C@@]1(c2cc(NC(=O)c3ccc(C#N)cn3)ccc2F)C/C(=C/CO)SC(N)=N1 [Compound 54]
15,≤ 1000,C=C1C[C@@](C)(c2cc(NC(=O)c3ccc(C#N)cn3)cnc2C)N=C(N)S1 [Compound 103]
16,≤ 1000,C/C(=C1\C[C@@](C)(c2cc(NC(=O)c3ccc(C#N)cn3)ccc2F)N=C(N)S1)C(F)F [Compound 94]

# Same assay, conditions: Recombinant human BACE-1 7.4 nM, substrate peptide 18 nM, pH 5.0, 30° C. 3 hours
row,SMILES,IC50 [nM]
1,COc1ccc(C2(c3cccc(NC(=O)c4ncc(Cl)cc4Cl)c3)CSC(N)=N2)cc1O (centres unmarked) [Compound 58],186
2,C#CCOc1cnc(C(=O)Nc2ccc(F)c([C@@]3(C)N=C(N)SC=C3C)c2)cn1 [Compound 24],54
3,COCCOc1ccc(C(=O)Nc2ccc(F)c([C@]3(C)C=CSC(N)=N3)c2)nc1 [Compound 33],73
4,Cc1cnc(C(=O)Nc2cccc(C3(C(F)(F)F)CCSC(N)=N3)c2)cn1 (centres unmarked) [Compound 44],2130
5,C[C@@]1(c2cc(NC(=O)c3cnc(NS(C)(=O)=O)cn3)ccc2F)C=CSC(N)=N1 [Compound 66],296
6,Cc1c(C(=O)Nc2ccc(F)c([C@]3(C)C=CSC(N)=N3)c2)oc2ccc(Br)cc12 [Compound 81],7
7,COc1cnc(C(=O)Nc2ccc(F)c([C@@]3(C)N=C(N)SC=C3C)c2)cn1 [Compound 22],572
8,CC1=CSC(N)=N[C@]1(C)c1cc(NC(=O)c2cnc(C)cn2)ccc1F [Compound 23],5280
9,N#Cc1ccc(C(=O)Nc2cccc(C3(C(F)(F)F)CCSC(N)=N3)c2)nc1 (centres unmarked) [Compound 47],91
10,COc1cnc(C(=O)Nc2cccc(C3(C(F)(F)F)CCSC(N)=N3)c2)cn1 (centres unmarked) [Compound 48],273
11,C[C@@]1(c2cc(NC(=O)c3ncc(Br)cn3)ccc2F)C=CSC(N)=N1 [Compound 79],24
12,NC1=NC(c2cccc(NC(=O)c3ccc(O)cn3)c2)(C2CCCCC2)CS1 (centres unmarked) [Compound 3],966
13,Cn1ccnc1COc1cnc(C(=O)Nc2ccc(F)c([C@]3(C)C=CSC(N)=N3)c2)cn1 [Compound 60],243
14,C[C@@]1(c2cc(NC(=O)c3cnc(-n4ccnn4)cn3)ccc2F)C=CSC(N)=N1 [Compound 72],250
15,C=C1C[C@@](C)(c2cc(NC(=O)c3cnc(C)cn3)ccc2F)N=C(N)S1 [Compound 53],76
16,C[C@@]1(c2cc(NC(=O)c3ccc(-c4ccc[nH]4)cn3)ccc2F)C=CSC(N)=N1 [Compound 39],97
17,C[C@@]1(c2cc(NC(=O)c3ccc(F)cn3)ccc2F)C=CSC(N)=N1 [Compound 76],62
18,Cc1ncnn1-c1cnc(C(=O)Nc2ccc(F)c([C@]3(C)C=CSC(N)=N3)c2)cn1 [Compound 75],697
19,NC1=NC(c2cccc(NC(=O)c3cnc(OCCF)cn3)c2)(C(F)(F)F)CCS1 (centres unmarked) [Compound 46],611
20,C[C@@]1(c2cc(NC(=O)c3cnc(OCc4ncc[nH]4)cn3)ccc2F)C=CSC(N)=N1 [Compound 61],169
21,C[C@@]1(c2cc(NC(=O)c3cnc(-n4nccn4)cn3)ccc2F)C=CSC(N)=N1 [Compound 73],234

# More lines, now with the values ahead:
row,IC50 [nM],SMILES
1,95,CC(C)=C1C[C@@](C)(c2cc(NC(=O)c3cnc(C)cn3)ccc2F)N=C(N)S1 [Compound 20]
2,22,C=C1C[C@@](C)(c2cc(NC(=O)c3ncc(C#N)cc3F)cnc2Cl)N=C(N)S1 [Compound 101]
3,352,NC1=NC(c2cccc(F)c2)(c2cccc(NC(=O)c3ncc(Cl)cc3Cl)c2)CS1 (centres unmarked) [Compound 56]
4,10,C[C@@]1(c2cc(NC(=O)c3ccc(Cl)cn3)ccc2F)C=CSC(N)=N1 [Compound 16]
5,19,C[C@@]1(c2cc(NC(=O)c3ncc(C#N)cc3Cl)ccc2F)C=CSC(N)=N1 [Compound 59]
6,19,COc1cnc(C(=O)Nc2ccc(F)c([C@]3(C)CC(=C(C)C)SC(N)=N3)c2)cn1 [Compound 21]
7,16,C=C1C[C@@](C)(c2cc(NC(=O)c3cnc(OC)cn3)ccc2F)N=C(N)S1 [Compound 51]
